{"source": "paper PMC3706879", "about": "“The neurotrophic compound J147 reverses cognitive impairment in aged Alzheimer's disease mice” (Alzheimer's Research & Therapy, 2013)", "key": {"mice": {"test_system": "mice", "assay": "acute toxicity in mice (Absorption Systems)", "assay_type": "in vivo", "conditions": "2 g/kg, oral, maximum testable dose"}, "huAPP/PS1 mice [1]": {"test_system": "huAPP/PS1 mice", "assay": "elevated plus maze in aged huAPP/PS1 mice", "assay_type": "in vivo", "conditions": "200 ppm in food for three months", "method": "(§1) The APPswe/PS1ΔE9 transgenic mice have been previously characterized. The line 85 mice carry two transgenes, the mouse/human chimeric APP/Swe, linked to Swedish FAD and human PS1ΔE9. At 20 months of age both male and female transgenic mice were fed a high fat diet (Harlan Tekland, Madison, WI, USA) with and without J147 (200 ppm, 10 mg/kg/day). Treatment continued for three months and was followed by behavior testing and sacrifice of mice for tissue harvesting. […] (Data not shown).\nThe elevated plus maze analyzes the anxiety response of mice. This test relies upon the tendency of mice to have a fear of heights and to navigate towards dark enclosed spaces and remain there. Our maze is made of gray plastic and consists of four arms (two open without walls and two enclosed by 15.25 cm high walls) 30 cm long and 5 cm wide in the shape of a plus sign. The elevated plus maze is placed close to the center of the room, and has similar levels of illumination on both open and closed arms. A video-tracking system (Noldus EthoVision) is used to automatically collect behavioral data. […] Mice were then tested in the maze for a five-minute period while the software tracked and recorded the behavior of the mice. The anxiety of mice was measured by comparing the time spent in the open arms to time spent in the closed arms. […]"}, "Aβ plaques": {"test_system": "Aβ plaques", "assay": "immunohistochemistry (6E10) of amyloid plaques in hippocampus of aged huAPP/PS1 mice", "assay_type": "in vivo", "method": "Brains were fixed with 4% paraformaldehyde in 100 mM sodium tetraborate, pH 9.5, for 3 h, cryoprotected with 20% sucrose-potassium-PBS (KPBS), and sectioned into coronal (30 μm) sections using a sliding microtome (Leica Microsystems Inc, Buffalo Grove, IL, USA). Sections were submerged in 0.3% H2O2 for 10 minutes to eliminate endogenous peroxidase activity and treated with 1% borate to eliminate free paraformaldehyde. Sections were incubated with primary antibody in 0.3% Triton X-100 in KPBS plus 2% filtered serum or BSA overnight at 4°C, and with […] (1:1,000) in 0.3% Triton X-100 for 1 hr at room temperature. After incubation with secondary antibody and ABC reagent (Vector Laboratories Inc, Burlingame, CA, USA), sections were developed using metal-enhanced DAB solution. Sections were mounted to slides, dried, dehydrolyzed, treated with xylene, and covered using permount (Fisher Scientific, Pittsburgh, Pennsylvania, USA). […]\nQuantification of amyloid plaque burden was based on the image captured by immunohistochemical staining with antibody 6E10. Sections of each mouse cortex and hippocampus were imaged together and the areas and densities of the plaques in the hippocampus only were measured by the Image J software (NIH). The total counts of Aβ plaques in sections per six mouse brains of each group were determined in an unbiased fashion."}, "[2]": {"assay": "pharmacokinetic profile in mice, per oral administration (Pharmaron)", "assay_type": "in vivo, CD1 Mice", "method": "The pharmacokinetics of J147 in the mouse brain and plasma were evaluated using standard procedures. Blood and brain distribution of J147 following per oral (PO) administration was plotted for mice as a function of time (Figure 5). […] Additional de-risking and target identification screens were carried out at 10 μM J147 by various CROs (Table 2). […] All original data are available upon request.\nFigure 5 Pharmacokinetic profile of J147 in mice. (A) The pharmacokinetic profile of J147 in mice was done by Pharmaron (Louisville, KY, USA). Plasma (B) and brain (C) distribution of J147 was plotted as a function of time following or per oral (PO) administration at 20 mg/kg."}, "huAPP/PS1 mice [3]": {"test_system": "huAPP/PS1 mice", "assay": "two-day water maze in aged huAPP/PS1 mice", "assay_type": "in vivo", "conditions": "200 ppm in food for three months, vs AD control", "method": "as §1\nSpatial memory was determined using the two-day water maze in 23-month-old huAPPswe/PS1 transgenic mice fed J147 at 200 ppm in food for the previous three months. The protocol was adapted from a publication by Gulinello and colleagues. Water temperature remained at 27°C throughout the experiment. The goal platform was positioned 45 cm from the outside wall in the north-west quadrant of the maze for all groups and all trials. Day 1 of the two-day water maze procedure involved training the mice to find the platform using cues located around the pool within a 180 s time frame. […] The time it took each mouse to find the hidden platform was measured as escape latency. […] All trials were recorded using the EthoVision Software and statistics were computed using GraphPad Instat software (GraphPad Software, San Diego, CA, USA)."}}, "note": "Entries after “also recorded” stand apart in the source; their conditions may differ."}
{"smiles": "COc1cccc(/C=N/N(C(=O)C(F)(F)F)c2ccc(C)cc2C)c1", "note": "[J147, (E)-N-(2,4-dimethylphenyl)-2,2,2-trifluoro-N'-(3methoxybenzyli-dene) acetohydrazide]", "values": [{"measurement": "acute toxicity", "setting": "mice", "result": "no oral toxicity; also recorded: negative results"}, {"measurement": "disinhibition phenotype (time in the open arm)", "setting": "huAPP/PS1 mice [1]", "result": "completely rescued"}, {"measurement": "plaque number and size", "setting": "Aβ plaques", "result": "no difference in either plaque number or size"}, {"measurement": "brain levels", "setting": "[2]; at 2 h after a single dose of 20 mg/kg in mice", "result": "about 600 nM"}, {"measurement": "half life", "setting": "[2]; brain, mice, PO", "result": 2.5, "unit": "h"}, {"measurement": "bioavailability following oral administration", "setting": "[2]; mice, PO", "result": 28, "unit": "%"}, {"measurement": "half life", "setting": "[2]; plasma, mice, PO", "result": 1.5, "unit": "h"}, {"measurement": "brain to blood ratio", "setting": "[2]; single dose of 20 mg/kg in mice", "result": "approximately 0.5"}, {"measurement": "spatial navigational memory (escape latency, hidden platform Day 2)", "setting": "huAPP/PS1 mice [3]", "result": "significantly improved the spatial navigational memory"}]}
